Test results reported in patent US3954737A, “Atropisomeric ansa ring compounds” (University of Illinois Foundation, priority 1974, dated 1976).

Assays:
Reverse Transcriptase = assay: Reverse transcriptase (RNA-directed DNA polymerase) inhibition; format: biochemical; design: concentration or dose not given beside the values
Excerpt: (§1) Tables II, III and IV below respectively set forth activities of representative atropisomeric forms of ansa ring compounds of the invention relative to the "normal" isomeric forms in the following assays: (A) reverse transcriptase (RNA-directed DNA polymerase); (B) bacterial RNA polymerase; (C) B. subtilis bacterial inhibition; (D) S. lutea bacterial inhibition; and, inhibition of numerous other bacterial strains.
The assay and work-up conditions for reverse transcriptase analysis were essentially those described by Brockman, et al., (Nature, 230, 249, (1971)), except for eliminating the phosphate from the washing solution (10 percent trichloroacetic acid).

S. schottmuelleri = S. schottmuelleri growth inhibition; format: cell-based
Protocol: (§2) Assays for inhibition of other bacterial strains were carried out according to standard uniform procedures.

S. aureus = S. aureus growth inhibition; format: cell-based
Protocol: as §2

S. lutea = S. lutea bacterial inhibition; format: cell-based; details: brain heart broth, 37°, 16-18 hours
Protocol: The assay for S. lutea inhibition was as follows. Water-soluble preparations were dissolved in brain heart infusion broth (Difco) to 1 mg./ml. Water-insoluble preparations were dissolved (or suspended) in dimethylformamide to 10 mg./ml. and diluted with brain heart broth to 1 mg./ml. Two-fold serial dilutions were made with broth starting with 1 mg./ml. with final volumes of 0.1 ml. per dilution. Overnight bacterial cultures were diluted 1:20,000 with brain heart and 0.1 ml. of diluted culture was added to each dilution of antibiotic (final total volume was 0.2 ml.). This was all done in plastic microtest plates (Microtest II Tissue Culture Plate, Bioquest). The plates were incubated at 37° for 16-18 hours and zones of inhibition were recorded.

B. cereus = B. cereus growth inhibition; format: cell-based
Protocol: as §2

P. oxalicum = P. oxalicum growth inhibition; format: cell-based
Protocol: as §2

K. pneumoniae = K. pneumoniae growth inhibition; format: cell-based
Protocol: as §2

E.Coli RNA Polymerase = E.Coli RNA Polymerase (Escherichia coli, UniProt P0A8V2); assay: Bacterial RNA polymerase inhibition; format: biochemical; design: concentration or dose not given beside the values; details: pH 7.9, 30°C, 15 min
E.Coli RNA Polymerase, sequence (P0A8V2 whole entry): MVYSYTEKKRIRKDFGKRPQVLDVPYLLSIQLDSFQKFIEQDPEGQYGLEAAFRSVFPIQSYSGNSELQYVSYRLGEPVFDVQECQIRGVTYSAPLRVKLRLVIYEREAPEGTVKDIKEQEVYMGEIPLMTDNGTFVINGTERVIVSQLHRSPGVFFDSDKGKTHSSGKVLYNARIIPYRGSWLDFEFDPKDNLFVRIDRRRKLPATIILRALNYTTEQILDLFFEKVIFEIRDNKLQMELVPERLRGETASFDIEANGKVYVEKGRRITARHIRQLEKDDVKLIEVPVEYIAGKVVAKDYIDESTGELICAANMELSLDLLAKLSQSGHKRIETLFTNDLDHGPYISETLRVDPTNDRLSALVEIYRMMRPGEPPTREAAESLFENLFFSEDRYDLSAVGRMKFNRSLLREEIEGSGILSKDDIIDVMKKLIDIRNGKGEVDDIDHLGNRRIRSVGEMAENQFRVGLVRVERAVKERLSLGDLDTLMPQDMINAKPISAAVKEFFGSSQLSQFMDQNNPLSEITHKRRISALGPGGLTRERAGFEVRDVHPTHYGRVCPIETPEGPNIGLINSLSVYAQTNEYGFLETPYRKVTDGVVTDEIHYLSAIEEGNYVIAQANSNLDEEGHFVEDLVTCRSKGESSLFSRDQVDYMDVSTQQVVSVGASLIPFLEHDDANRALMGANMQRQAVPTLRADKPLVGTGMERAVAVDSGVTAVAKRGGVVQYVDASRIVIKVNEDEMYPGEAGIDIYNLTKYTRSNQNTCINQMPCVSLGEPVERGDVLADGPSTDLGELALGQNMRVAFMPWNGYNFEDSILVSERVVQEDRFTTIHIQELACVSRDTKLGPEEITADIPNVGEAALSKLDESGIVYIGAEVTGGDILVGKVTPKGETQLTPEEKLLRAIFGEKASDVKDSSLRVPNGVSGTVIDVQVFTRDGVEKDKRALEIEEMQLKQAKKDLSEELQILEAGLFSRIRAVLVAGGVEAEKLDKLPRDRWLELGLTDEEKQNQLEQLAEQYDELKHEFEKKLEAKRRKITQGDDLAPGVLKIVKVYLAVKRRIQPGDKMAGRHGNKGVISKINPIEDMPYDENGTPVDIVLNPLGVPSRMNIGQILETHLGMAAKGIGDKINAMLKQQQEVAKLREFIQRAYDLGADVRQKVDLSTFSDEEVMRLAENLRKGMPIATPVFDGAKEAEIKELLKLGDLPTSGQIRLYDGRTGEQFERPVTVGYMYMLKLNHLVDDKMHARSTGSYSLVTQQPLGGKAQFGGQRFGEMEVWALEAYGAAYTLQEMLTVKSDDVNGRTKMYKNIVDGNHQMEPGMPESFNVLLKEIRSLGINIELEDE
E.Coli RNA Polymerase, sequence (P0A8T7 whole entry partner): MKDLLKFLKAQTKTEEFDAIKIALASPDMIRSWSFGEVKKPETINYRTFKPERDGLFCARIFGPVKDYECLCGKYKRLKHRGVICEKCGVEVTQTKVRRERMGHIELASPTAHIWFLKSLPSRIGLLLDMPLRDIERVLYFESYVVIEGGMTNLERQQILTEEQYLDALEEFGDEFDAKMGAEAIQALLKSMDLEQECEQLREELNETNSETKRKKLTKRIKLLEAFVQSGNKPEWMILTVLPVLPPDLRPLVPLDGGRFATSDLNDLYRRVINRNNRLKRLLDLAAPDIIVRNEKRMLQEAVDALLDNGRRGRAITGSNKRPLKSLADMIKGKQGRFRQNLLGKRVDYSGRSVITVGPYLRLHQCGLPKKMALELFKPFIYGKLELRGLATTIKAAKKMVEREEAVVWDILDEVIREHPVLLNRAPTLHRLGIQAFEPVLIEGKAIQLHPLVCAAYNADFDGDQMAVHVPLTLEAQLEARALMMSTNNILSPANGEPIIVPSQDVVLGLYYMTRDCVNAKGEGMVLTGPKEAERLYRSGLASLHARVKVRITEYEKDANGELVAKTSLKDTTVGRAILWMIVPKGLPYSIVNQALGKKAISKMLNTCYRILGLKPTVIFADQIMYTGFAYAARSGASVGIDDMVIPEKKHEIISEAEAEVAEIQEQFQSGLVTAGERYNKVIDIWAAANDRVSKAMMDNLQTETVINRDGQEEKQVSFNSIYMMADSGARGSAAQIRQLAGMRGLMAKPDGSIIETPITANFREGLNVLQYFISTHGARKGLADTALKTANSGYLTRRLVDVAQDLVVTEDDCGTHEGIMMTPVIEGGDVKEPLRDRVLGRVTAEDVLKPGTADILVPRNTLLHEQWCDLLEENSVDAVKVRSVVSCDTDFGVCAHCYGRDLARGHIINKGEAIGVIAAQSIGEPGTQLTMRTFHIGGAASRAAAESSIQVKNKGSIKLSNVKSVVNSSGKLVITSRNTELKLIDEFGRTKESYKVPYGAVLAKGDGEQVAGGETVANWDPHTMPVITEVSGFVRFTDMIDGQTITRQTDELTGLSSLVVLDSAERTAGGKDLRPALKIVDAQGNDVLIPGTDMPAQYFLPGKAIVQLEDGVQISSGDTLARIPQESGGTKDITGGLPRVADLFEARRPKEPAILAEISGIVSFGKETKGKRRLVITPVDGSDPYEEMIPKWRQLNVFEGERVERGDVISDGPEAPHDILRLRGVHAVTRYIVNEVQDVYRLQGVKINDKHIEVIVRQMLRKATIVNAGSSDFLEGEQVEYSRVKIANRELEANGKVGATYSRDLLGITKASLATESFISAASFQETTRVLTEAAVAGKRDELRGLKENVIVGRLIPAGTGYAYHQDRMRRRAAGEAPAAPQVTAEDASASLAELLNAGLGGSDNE
E.Coli RNA Polymerase, sequence (P0A7Z4 whole entry partner): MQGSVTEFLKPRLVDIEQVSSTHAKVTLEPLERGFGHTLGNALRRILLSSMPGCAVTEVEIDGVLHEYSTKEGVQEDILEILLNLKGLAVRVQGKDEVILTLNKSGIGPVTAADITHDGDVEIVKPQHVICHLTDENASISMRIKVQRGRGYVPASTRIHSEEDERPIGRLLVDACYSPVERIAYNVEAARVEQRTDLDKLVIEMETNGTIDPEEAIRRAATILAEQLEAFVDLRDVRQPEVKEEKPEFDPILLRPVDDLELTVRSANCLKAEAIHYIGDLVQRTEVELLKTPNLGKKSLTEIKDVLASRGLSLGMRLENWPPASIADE
E.Coli RNA Polymerase, sequence (P0A800 whole entry partner): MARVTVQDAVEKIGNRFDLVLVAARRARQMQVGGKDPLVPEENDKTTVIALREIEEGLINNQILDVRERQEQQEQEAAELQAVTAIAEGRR
Excerpt: as §1
The assay for bacterial RNA polymerase followed the procedure of Reusser (J. Bacteriol, 105, 580 (1971)). Assay mixtures were prepared containing in a total volume of 0.25 ml: Tris-hydrochloride buffer, pH 7.9, 5 μmoles; MgCl2, 1 μmole; mercaptoethanol, 3 μmoles; MnCl2, 0.25 μmole; quanosine triphosphate, cytidine triphosphate, uridine triphosphate, 0.1 μmole each; adenosine triphosphate 8-^14 C, 0.1 μmole containing 0.05 μCi; dAT, 0.2 units; polymerase, ~35 μg. The reaction mixtures were incubated at 30°C for 15 min.

S. pasteurianum = S. pasteurianum growth inhibition; format: cell-based
Protocol: as §2

B. subtilis = B. subtilis bacterial inhibition, zone of inhibition (paper disc on agar); format: cell-based, B. subtilis UC 564; details: 1/2 inch paper discs, 0.08 ml per disc
Protocol: The assay for B. subtilis bacterial inhibition was obtained on plates with B. subtilis UC 564 spores in agar with the following composition per liter:
After autoclaving, 10 ml. of 20 percent glucose was added. The seeding rate was approximately 10^9 spores per liter. Test solutions were applied to 1/2 inch paper discs (Schleicher & Schuell 740E) with 0.08 ml. per disc. Zones of inhibition were recorded.

E. coli = E. coli growth inhibition; format: cell-based
Protocol: as §2

P. aeruginosa = P. aeruginosa growth inhibition; format: cell-based
Protocol: as §2

P. vulgaris = P. vulgaris growth inhibition; format: cell-based
Protocol: as §2

M. avium = M. avium growth inhibition; format: cell-based
Protocol: as §2

Row | Compound | Reverse Transcriptase % Inhibition (Reverse Transcriptase; Table II) | Zone of Inhibition (S. schottmuelleri) [mm.] | Zone of Inhibition (S. aureus) [mm.] | Zone of Inhibition (S. lutea) [mm.] | Zone of Inhibition (B. cereus) [mm.] | Zone of Inhibition (P. oxalicum) [mm.] | Zone of Inhibition (K. pneumoniae) [mm.] | E.Coli RNA Polymerase % Inhibition (E.Coli RNA Polymerase; Table III) [%] | Zone of Inhibition (S. pasteurianum) [mm.] | Zone of Inhibition (B. subtilis) [mm.] | Zone of Inhibition (E. coli) [mm.] | Zone of Inhibition (P. aeruginosa) [mm.] | Zone of Inhibition (P. vulgaris) [mm.] | Zone of Inhibition (M. avium) [mm.] | Reverse Transcriptase % Inhibition (Reverse Transcriptase; Table IIA) [%] | E.Coli RNA Polymerase % Inhibition (E.Coli RNA Polymerase; Table IIIA) [%]
1 | COC(=O)C1C(O)C(C)C(O)C(C)/C=C/C=C(\C)C(=O)Nc2c(C)c(OC(C)=O)c3c(c2O)C(=O)C(C)=C2OCOC(=C23)/C(C)=C\C(C)(O)C(O)C(C)C1O (stereo not shown) [Atropisostreptovaricin C, atropisostreptovaricin C] | 70% | 0 | 20 | 28 | 9 | 0 | 0 | 50 | 0 | 14 | 0 | 0 | 0 | 20 |  | 
2 | COC(=O)[C@@H]1[C@H](O)[C@H](C)[C@H](O)[C@H](C)/C=C\C=C(/C)C(=O)Nc2c(C)c(OC(C)=O)c3c(c2O)C(=O)C(C)=C2OCOC(=C23)/C(C)=C/[C@@](C)(O)[C@H](O)[C@@H](C)[C@H]1O [Streptovaricin C, streptovaricin C, reference compound] | 31-53% | 10 | 26 | 33 |  | 0 | 21 | 78 |  | 22 | 13 |  | 8 | 15 |  | 
3 | CC(=O)Oc1c(C)c2c(O)c3c1C1=C(OCOC1=C(C)C3=O)C(C)=CC(C)(O)C(O)C(C)C(O)C1C(=O)OC(C(C)/C=C\C=C(C)C(=O)N2)C(C)C1O (stereo not shown) [Streptovaricin Fc, streptovaricin Fc, reference compound] | 68% | 0 | 0 | 0 | 0 | 0 | 0 | 0 | 0 | 0 | 0 | 0 | 0 | 14 |  | 
4 | atropisostreptovaricin C triacetate cyclic benzeneboronate |  |  |  |  |  |  |  |  |  |  |  |  |  |  | 77 | 23
5 | atropisostreptovaricin C triacetate cyclic bromobenzeneboronate [Atropisostreptovaricin C Triacetate Cyclic p-Bromobenzeneboronate] |  |  |  |  |  |  |  |  |  |  |  |  |  |  | 66 | 46
6 | atropisostreptovaricin Fc | 54% | 0 | 0 | 0 | 0 | 0 | 0 | 0 | 0 | 0 | 0 | 0 | 0 | 0 |  | 
7 | streptovaricin C triacetate cyclic benzeneboronate [reference compound] |  |  |  |  |  |  |  |  |  |  |  |  |  |  | 44 | 2
8 | streptovaricin C triacetate cyclic bromobenzeneboronate [reference compound] |  |  |  |  |  |  |  |  |  |  |  |  |  |  | 57 | 20
